Here are results for two compounds from article PMC6222422, “Synthesis and Biological Evaluation of Novel Indole-Derived Thioureas” (Molecules : A Journal of Synthetic Chemistry and Natural …, 2018).

Data set [1] in a line: in vitro. As to conditions: human.
Data set [2] relates to VSV. Kind of data set: microbe, parasite or virus in culture. It counts as cell-based. Conditions: Vesicular stomatitis virus, Vero 76, read-out: VSV EC50.
Data set [3] has as its system S. aureus ATCC 6538. The data set is described as follows: disc diffusion method. It counts as cell-based, Staphylococcus aureus. As to conditions: Staphylococcus aureus, ATCC6538, applied 400 µg per disc, dash = lack of the growth inhibition area, read-out: diameter of growth inhibitory zone (GIZ).
Data set [4] concerns the target S. aureus DNA gyrase (Staphylococcus aureus, UniProt P0A0K8+P20831). The data set is described as follows: S. aureus DNA gyrase supercoiling assay. It counts as biochemical.
In data set [5] the test system is BVDV. Kind of data set: microbe, parasite or virus in culture. It counts as cell-based, bovine viral diarrhoea virus. As to conditions: Bovine viral diarrhea virus isolates and strains, MDBK, in Bos taurus, read-out: BVDV EC50.
Data set [6] is described as follows: in vitro. Conditions: Syrian hamster (Mesocricetus auratus).
For data set [7], the system named is B. cereus ATCC 11778. Kind of data set: MIC, twofold serial agar dilution. It counts as cell-based. As to conditions: Bacillus cereus, ATCC11778, 18 h, 35 °C, read-out: minimal inhibitory concentrations (MIC). (In agar dilution the substance is mixed into plates at graded concentrations.)
In data set [8] the test system is VV. The data set is described as follows: microbe, parasite or virus in culture. It counts as cell-based. As to conditions: Orthopoxvirus vaccinia, Vero 76, read-out: VV EC50.
Data set [9] has as its target T1, S. aureus topoisomerase IV (Staphylococcus aureus, UniProt P0C1S7+P0C1U9). Kind of data set: biochemical.
In data set [10] the test system is HIV-1. Kind of data set: microbe, parasite or virus in culture. As to conditions: Human immunodeficiency virus 1, MT4, read-out: HIV-1 EC50.
Data set [11] has as its system S. aureus NCTC 4163. Kind of data set: MIC, twofold serial agar dilution. It counts as cell-based. Conditions: Staphylococcus aureus, NCTC4163, 18 h, 35 °C, read-out: minimal inhibitory concentrations (MIC).
Data set [12] addresses T1, S. aureus topoisomerase IV. As to conditions: 64 to 0.5 µg/mL, Figure 2.

In brackets after ≈: the same amount, converted by molar mass.

T1 sequence (P0C1U9 whole entry): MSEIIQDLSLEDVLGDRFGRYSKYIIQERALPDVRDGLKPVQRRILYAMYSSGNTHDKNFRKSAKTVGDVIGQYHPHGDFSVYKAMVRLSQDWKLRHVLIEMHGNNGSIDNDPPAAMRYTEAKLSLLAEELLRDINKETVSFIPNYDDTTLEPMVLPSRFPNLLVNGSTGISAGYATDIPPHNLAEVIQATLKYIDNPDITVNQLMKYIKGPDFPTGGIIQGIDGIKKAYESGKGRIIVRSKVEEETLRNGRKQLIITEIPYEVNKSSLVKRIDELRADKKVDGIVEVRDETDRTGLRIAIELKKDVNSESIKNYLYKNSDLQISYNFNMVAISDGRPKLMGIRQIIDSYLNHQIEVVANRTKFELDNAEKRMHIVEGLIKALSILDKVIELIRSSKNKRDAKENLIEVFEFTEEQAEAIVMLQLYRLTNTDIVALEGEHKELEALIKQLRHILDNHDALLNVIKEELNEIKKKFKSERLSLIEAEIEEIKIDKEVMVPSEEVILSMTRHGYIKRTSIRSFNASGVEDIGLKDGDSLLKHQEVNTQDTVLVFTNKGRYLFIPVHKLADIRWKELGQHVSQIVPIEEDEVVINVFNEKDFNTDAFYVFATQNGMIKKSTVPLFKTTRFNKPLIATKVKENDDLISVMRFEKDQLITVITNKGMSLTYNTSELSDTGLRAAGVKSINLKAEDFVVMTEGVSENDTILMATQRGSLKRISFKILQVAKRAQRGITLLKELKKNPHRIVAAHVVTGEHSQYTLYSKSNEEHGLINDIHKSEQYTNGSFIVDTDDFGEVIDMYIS
T1 sequence (P0C1S7 whole entry): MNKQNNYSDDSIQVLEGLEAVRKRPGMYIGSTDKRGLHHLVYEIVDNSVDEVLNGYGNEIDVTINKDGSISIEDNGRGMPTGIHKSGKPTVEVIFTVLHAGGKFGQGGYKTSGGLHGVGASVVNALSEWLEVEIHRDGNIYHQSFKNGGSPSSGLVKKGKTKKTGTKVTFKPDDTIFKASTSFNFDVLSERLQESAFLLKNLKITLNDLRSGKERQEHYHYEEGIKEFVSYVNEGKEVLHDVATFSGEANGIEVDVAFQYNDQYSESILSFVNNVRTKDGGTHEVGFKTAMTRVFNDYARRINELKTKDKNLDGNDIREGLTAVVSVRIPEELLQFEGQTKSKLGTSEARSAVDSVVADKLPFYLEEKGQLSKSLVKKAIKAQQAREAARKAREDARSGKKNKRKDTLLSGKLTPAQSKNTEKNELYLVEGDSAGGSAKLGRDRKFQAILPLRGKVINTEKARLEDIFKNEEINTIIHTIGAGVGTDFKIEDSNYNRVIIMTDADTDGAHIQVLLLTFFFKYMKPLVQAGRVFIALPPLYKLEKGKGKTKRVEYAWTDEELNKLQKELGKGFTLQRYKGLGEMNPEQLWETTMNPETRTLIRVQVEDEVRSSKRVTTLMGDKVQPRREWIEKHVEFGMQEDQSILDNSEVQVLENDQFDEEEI
S. aureus DNA gyrase, sequence (P0A0K8 whole entry): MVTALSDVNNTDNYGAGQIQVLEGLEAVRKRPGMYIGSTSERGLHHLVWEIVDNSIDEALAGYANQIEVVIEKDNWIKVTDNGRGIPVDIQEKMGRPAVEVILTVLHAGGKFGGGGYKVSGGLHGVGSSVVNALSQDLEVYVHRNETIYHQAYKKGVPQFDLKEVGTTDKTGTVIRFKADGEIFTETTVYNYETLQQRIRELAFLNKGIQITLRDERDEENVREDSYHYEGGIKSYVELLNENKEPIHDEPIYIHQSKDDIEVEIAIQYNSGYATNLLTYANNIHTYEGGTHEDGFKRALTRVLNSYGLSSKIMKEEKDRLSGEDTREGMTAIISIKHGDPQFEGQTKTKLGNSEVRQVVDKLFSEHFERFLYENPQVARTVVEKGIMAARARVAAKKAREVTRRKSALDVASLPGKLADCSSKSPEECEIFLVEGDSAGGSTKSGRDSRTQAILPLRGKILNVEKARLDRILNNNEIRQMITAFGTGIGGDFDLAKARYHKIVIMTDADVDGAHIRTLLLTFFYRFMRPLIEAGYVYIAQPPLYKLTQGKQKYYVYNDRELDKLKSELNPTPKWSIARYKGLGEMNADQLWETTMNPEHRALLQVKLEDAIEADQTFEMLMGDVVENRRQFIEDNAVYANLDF
S. aureus DNA gyrase, sequence (P20831 whole entry): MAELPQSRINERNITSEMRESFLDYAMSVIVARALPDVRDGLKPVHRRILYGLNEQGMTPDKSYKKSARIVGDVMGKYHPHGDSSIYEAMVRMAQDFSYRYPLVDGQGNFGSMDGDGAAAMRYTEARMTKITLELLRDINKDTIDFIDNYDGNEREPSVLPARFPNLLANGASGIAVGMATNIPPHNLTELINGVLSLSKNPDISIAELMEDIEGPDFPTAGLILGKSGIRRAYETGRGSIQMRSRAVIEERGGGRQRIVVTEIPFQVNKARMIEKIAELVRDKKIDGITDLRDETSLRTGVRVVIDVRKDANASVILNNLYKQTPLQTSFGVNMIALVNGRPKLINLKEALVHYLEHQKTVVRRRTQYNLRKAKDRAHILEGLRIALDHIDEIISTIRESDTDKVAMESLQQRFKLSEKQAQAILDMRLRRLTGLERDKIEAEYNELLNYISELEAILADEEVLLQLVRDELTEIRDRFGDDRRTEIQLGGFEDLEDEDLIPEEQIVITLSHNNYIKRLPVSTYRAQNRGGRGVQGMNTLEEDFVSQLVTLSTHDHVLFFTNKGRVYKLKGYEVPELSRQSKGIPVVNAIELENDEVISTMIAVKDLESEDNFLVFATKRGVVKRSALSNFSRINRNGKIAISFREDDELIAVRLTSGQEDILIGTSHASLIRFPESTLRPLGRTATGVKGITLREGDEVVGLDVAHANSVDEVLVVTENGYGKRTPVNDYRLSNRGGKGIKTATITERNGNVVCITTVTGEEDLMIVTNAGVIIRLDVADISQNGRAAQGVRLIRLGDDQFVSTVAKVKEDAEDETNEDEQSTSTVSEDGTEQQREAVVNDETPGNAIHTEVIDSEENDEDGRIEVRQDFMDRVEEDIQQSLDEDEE

With `S=C(NCCc1c[nH]c2ccccc12)Nc1ccc(Cl)c(Cl)c1` [Compound 6, 1-(2-(1H-indol-3-yl)ethyl)-3-(3,4-dichlorophenyl)thiourea], the results for the CC50 in data set [1] and in [6] were 45 µM and 10 µM, respectively. Also, the EC50 is more than 13 µM in [2], more than 27 µM in data set [5], more than 13 µM in data set [8] and more than 45 µM in [10]. Also, in data set [3], the zone of inhibition at 400 µg/disc stood at 16 mm. In addition, the IC50 is 199 µM in data set [4] (supercoiling of relaxed pBR322 DNA, 30 min, 37 °C, read-out: IC50 ± SEM, S. aureus DNA Gyrase (converted)) and 79.3 µM in data set [9]. Moreover, the MIC in [7] and in data set [11] was 6.25 µg/mL (≈ 17.2 µM) throughout.
`S=C(NCCc1c[nH]c2ccccc12)Nc1cccc(Cl)c1` [Compound 14, 1-(2-(1H-Indol-3-yl)ethyl)-3-(3-chlorophenyl)thiourea]: the figures for the CC50 in data set [1] and in [6] were 42 µM and 6 µM, respectively. Moreover, the EC50 in data set [2] was more than 32 µM; in [5] it was more than 32 µM; in data set [8], more than 32 µM; in [10], more than 42 µM. The zone of inhibition at 400 µg/disc in data set [3] was 13 mm. Also, in data set [4] (data not shown), the “effect against DNA gyrase (in words)” value is “not significantly effective”. Moreover, the “effect against DNA topoisomerase IV (in words)” value in [12] is listed as “not significantly effective”. Besides, the MIC in [7] worked out at 25 µg/mL (≈ 75.8 µM); in data set [11], 50 µg/mL (≈ 152 µM).

A word on the EC50: it is the concentration at which the effect is half-maximal. In general, IC50 refers to the concentration that gives 50% inhibition.
